{"source": "patent US10800741B2", "about": "(ANCUREALL PHARMACEUTICAL (SHANGHAI) CO., LTD., priority 2017, dated 2020)", "test_in_all_cases": "KINOMEscan in vitro binding to 468 labeled protein kinases", "key": {"protein kinases [1]": {"biological_target": "T1, protein kinases (Homo sapiens, UniProt P36888, R834Q)", "T1 construct": "purchased Discovery X company (USA), KINOMEscan screening platform", "T1 sequence (P36888 27-993 R834Q)": "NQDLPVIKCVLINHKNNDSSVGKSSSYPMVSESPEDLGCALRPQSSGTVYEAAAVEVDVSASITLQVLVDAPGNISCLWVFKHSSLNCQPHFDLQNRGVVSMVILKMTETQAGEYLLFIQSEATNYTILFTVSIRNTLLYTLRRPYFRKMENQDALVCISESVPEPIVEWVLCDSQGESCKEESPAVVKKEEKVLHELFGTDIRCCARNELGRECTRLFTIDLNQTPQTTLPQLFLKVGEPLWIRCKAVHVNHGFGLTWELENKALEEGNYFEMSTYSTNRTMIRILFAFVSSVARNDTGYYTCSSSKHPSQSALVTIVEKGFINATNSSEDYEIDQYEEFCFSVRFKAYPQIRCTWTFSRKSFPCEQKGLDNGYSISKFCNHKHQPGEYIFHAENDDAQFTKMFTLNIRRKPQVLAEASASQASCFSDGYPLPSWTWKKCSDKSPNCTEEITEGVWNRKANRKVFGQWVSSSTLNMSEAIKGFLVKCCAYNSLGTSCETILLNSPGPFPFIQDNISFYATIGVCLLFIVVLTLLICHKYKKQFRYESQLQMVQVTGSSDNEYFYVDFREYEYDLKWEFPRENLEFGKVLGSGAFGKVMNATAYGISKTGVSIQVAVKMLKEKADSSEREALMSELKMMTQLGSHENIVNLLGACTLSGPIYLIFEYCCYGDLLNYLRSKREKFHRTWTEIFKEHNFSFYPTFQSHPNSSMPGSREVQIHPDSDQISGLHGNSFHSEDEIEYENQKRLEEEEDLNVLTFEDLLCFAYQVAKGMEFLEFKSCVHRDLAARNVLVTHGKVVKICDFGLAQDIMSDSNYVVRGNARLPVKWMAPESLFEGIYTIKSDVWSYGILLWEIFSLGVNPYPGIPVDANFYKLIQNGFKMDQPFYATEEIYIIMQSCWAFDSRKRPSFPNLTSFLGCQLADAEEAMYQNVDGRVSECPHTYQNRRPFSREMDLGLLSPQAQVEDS", "conditions": "FLT3(R834Q), read-out: Test compound/solvent control (%)", "outline": "(§1)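 Competition binding across 468 labelled kinases on the KINOMEscan platform, compound tested at 1000 nM, 10 nM and 1 nM, duplicate samples. Result given as percentage of DMSO solvent control; lower percentage means stronger binding.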"}, "protein kinases [2]": {"biological_target": "T2, protein kinases (Homo sapiens, UniProt P10721, L576P)", "T2 construct": "purchased Discovery X company (USA), KINOMEscan screening platform", "T2 sequence (P10721 26-976 L576P)": "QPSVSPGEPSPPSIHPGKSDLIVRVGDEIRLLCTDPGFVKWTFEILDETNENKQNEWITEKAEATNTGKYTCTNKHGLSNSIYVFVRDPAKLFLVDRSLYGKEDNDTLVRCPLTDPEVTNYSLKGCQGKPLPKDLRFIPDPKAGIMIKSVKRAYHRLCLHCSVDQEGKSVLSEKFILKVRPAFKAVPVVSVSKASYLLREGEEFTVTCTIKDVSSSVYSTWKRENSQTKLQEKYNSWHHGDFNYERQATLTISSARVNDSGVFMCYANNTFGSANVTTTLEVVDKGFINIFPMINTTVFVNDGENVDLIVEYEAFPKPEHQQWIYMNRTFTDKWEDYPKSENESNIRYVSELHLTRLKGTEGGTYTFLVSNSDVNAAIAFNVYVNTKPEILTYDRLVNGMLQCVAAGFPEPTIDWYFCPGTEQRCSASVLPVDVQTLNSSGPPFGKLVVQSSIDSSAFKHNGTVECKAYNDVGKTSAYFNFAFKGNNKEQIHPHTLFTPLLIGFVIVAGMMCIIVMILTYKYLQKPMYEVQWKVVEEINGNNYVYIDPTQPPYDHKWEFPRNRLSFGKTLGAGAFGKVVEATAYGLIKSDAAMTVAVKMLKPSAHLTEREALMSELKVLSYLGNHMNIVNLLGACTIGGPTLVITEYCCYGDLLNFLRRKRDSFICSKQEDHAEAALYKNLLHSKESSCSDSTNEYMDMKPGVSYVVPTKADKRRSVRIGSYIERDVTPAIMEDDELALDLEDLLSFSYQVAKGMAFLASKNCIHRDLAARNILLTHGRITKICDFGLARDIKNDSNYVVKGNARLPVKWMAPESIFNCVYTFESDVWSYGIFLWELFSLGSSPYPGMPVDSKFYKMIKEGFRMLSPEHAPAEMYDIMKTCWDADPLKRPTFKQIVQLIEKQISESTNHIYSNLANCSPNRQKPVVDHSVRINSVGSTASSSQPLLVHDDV", "conditions": "KIT(L576P), read-out: Test compound/solvent control (%)", "outline": "as §1"}, "protein kinases [3]": {"biological_target": "T3, protein kinases (Homo sapiens, UniProt P36888)", "T3 construct": "purchased Discovery X company (USA), KINOMEscan screening platform", "T3 sequence (P36888 27-993)": "T1 sequence (P36888 27-993 R834Q) with Q808R", "conditions": "FLT3, read-out: Test compound/solvent control (%)", "outline": "as §1"}}, "note": "Positions count from the first letter of the chain named."}
{"smiles": "COCCOc1cc2nccc(Oc3ccc(NC(=O)Nc4cc(C(C)(C)C)n[nH]4)c(Cl)c3)c2cc1NC(C)=O", "note": "[Compound 66, N-[4-{4-[3-(5-tert-butyl-2H-pyrazol-3-yl)-ureido]-3-chloro-phenoxy}-7-(2-methoxy-ethoxy)-quinolin-6-yl]-acetamide]", "values": [{"measurement": "remaining binding at 0.001 µM", "setting": "protein kinases [1]; 1 nM", "value": 83, "unit": "%"}, {"measurement": "remaining binding at 0.01 µM", "setting": "protein kinases [1]; 10 nM", "value": 45, "unit": "%"}, {"measurement": "remaining binding at 1 µM", "setting": "protein kinases [1]; 1000 nM", "value": 0.6, "unit": "%"}, {"measurement": "remaining binding at 0.001 µM", "setting": "protein kinases [2]; 1 nM", "value": 95, "unit": "%"}, {"measurement": "remaining binding at 0.01 µM", "setting": "protein kinases [2]; 10 nM", "value": 32, "unit": "%"}, {"measurement": "remaining binding at 1 µM", "setting": "protein kinases [2]; 1000 nM", "value": 0, "unit": "%"}, {"measurement": "remaining binding at 0.001 µM", "setting": "protein kinases [3]; 1 nM", "value": 92, "unit": "%"}, {"measurement": "remaining binding at 0.01 µM", "setting": "protein kinases [3]; 10 nM", "value": 20, "unit": "%"}, {"measurement": "remaining binding at 1 µM", "setting": "protein kinases [3]; 1000 nM", "value": 1.9, "unit": "%"}]}
